Data taken from PubChem BioAssay (NCI).
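The compound was tested at five concentrations on cells cultured in 96-well plates, with a 48-hour exposure period. Abbreviation: GI50, concentration required for 50% inhibition of growth. TGI denotes the concentration required for complete inhibition of growth.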

What was measured:
Experiment in all cases: DTP human tumour cell line panel, 48 h
KM12 colon = system: KM12 colon
HL-60(TB) leukemia = system: HL-60(TB) leukemia
SW-620 colon = system: SW-620 colon
A549 NSCLC = system: A549 NSCLC
SF-268 CNS = system: SF-268 CNS
SK-MEL-2 melanoma = system: SK-MEL-2 melanoma
LOX IMVI melanoma = system: LOX IMVI melanoma
OVCAR-3 ovarian = system: OVCAR-3 ovarian
SK-MEL-5 melanoma = system: SK-MEL-5 melanoma
M14 melanoma = system: M14 melanoma

Q: What does the source list for `C=CC[N+]12CN3CN(CN(C3)C1)C2`?
A: TGI (KM12 colon): 66.8 µM; TGI (HL-60(TB) leukemia): > 100 µM; TGI (SW-620 colon): > 100 µM; TGI (A549 NSCLC): > 100 µM; TGI (SF-268 CNS): 72.3 µM; TGI (SK-MEL-2 melanoma): > 100 µM; TGI (LOX IMVI melanoma): 83 µM; TGI (OVCAR-3 ovarian): > 100 µM; TGI (SK-MEL-5 melanoma): > 100 µM; TGI (M14 melanoma): 82.3 µM

Q: How did the GI50 (KM12 colon) turn out when `O=c1ccc2nc(-c3ccccc3)nn(-c3ccccn3)c-2c1` was run?
A: The GI50 was 25.5 µM.

Q: What about the TGI (KM12 colon) of the same compound?
A: The TGI was 70.2 µM.

Q: What about the GI50 (HL-60(TB) leukemia) of the same compound?
A: Its GI50 is 1.34 µM.

Q: And the TGI (HL-60(TB) leukemia)?
A: The TGI was 4.33 µM.

Q: What about the GI50 (A549 NSCLC) of the same compound?
A: The GI50 was 38.4 µM.

Q: And the TGI (A549 NSCLC)?
A: Its TGI is over 100 µM.

Q: What about the GI50 (SF-268 CNS) of the same compound?
A: Its GI50 is 19 µM.

Q: What about the TGI (SF-268 CNS) of the same compound?
A: Its TGI is 41 µM.

Q: What about the GI50 (SK-MEL-2 melanoma) of the same compound?
A: The GI50 was 15 µM.

Q: And the TGI (SK-MEL-2 melanoma)?
A: The TGI was 41.9 µM.

Q: And the GI50 (LOX IMVI melanoma)?
A: Its GI50 is 4.03 µM.

Q: What about the TGI (LOX IMVI melanoma) of the same compound?
A: The TGI was 25.3 µM.

Q: And the GI50 (OVCAR-3 ovarian)?
A: Its GI50 is 1.69 µM.

Q: And the TGI (OVCAR-3 ovarian)?
A: The TGI was 3.15 µM.

Q: What about the GI50 (SK-MEL-5 melanoma) of the same compound?
A: The GI50 was 13.9 µM.

Q: What about the TGI (SK-MEL-5 melanoma) of the same compound?
A: Its TGI is 33.6 µM.

Q: And the GI50 (M14 melanoma)?
A: The GI50 was 16.7 µM.

Q: And the TGI (M14 melanoma)?
A: The TGI was 44.6 µM.

Q: `O=C1c2ccccc2C(=O)c2c(Nc3ccc4c5c(cccc35)C(=O)c3ccccc3-4)cccc21` was tested. Which TGI (KM12 colon) did it give?
A: Its TGI is over 100 µM.

Q: And the TGI (SW-620 colon)?
A: The TGI was over 100 µM.

Q: What about the TGI (A549 NSCLC) of the same compound?
A: Its TGI is over 100 µM.

Q: And the TGI (SF-268 CNS)?
A: The TGI was over 100 µM.

Q: What about the TGI (SK-MEL-2 melanoma) of the same compound?
A: The TGI was over 100 µM.

Q: What about the TGI (LOX IMVI melanoma) of the same compound?
A: Its TGI is over 100 µM.

Q: And the TGI (OVCAR-3 ovarian)?
A: Its TGI is over 100 µM.

Q: What about the TGI (SK-MEL-5 melanoma) of the same compound?
A: The TGI was over 100 µM.

Q: And the TGI (M14 melanoma)?
A: Its TGI is over 100 µM.

Q: `N#CCCCC[N+]12CN3CN(CN(C3)C1)C2` was tested. Which TGI (KM12 colon) did it give?
A: The TGI was over 100 µM.

Q: What about the TGI (HL-60(TB) leukemia) of the same compound?
A: The TGI was over 100 µM.

Q: What about the TGI (SW-620 colon) of the same compound?
A: The TGI was over 100 µM.

Q: And the TGI (A549 NSCLC)?
A: Its TGI is over 100 µM.

Q: And the TGI (SF-268 CNS)?
A: Its TGI is over 100 µM.

Q: And the TGI (SK-MEL-2 melanoma)?
A: Its TGI is over 100 µM.

Q: What about the TGI (LOX IMVI melanoma) of the same compound?
A: The TGI was over 100 µM.

Q: And the TGI (OVCAR-3 ovarian)?
A: Its TGI is over 100 µM.

Q: What about the TGI (SK-MEL-5 melanoma) of the same compound?
A: Its TGI is over 100 µM.

Q: And the TGI (M14 melanoma)?
A: The TGI was over 100 µM.

Q: `CC(C)c1cc(CN(C)C)c(O)c(C(C)(C)C)c1` was tested. Which TGI (KM12 colon) did it give?
A: Its TGI is 46.2 µM.

Q: What about the TGI (HL-60(TB) leukemia) of the same compound?
A: Its TGI is 15.1 µM.

Q: And the TGI (SW-620 colon)?
A: Its TGI is 36.4 µM.

Q: What about the TGI (A549 NSCLC) of the same compound?
A: The TGI was 53.1 µM.

Q: And the TGI (SF-268 CNS)?
A: Its TGI is 58.4 µM.

Q: And the TGI (SK-MEL-2 melanoma)?
A: Its TGI is 38.6 µM.

Q: And the TGI (LOX IMVI melanoma)?
A: Its TGI is 32.5 µM.

Q: And the TGI (OVCAR-3 ovarian)?
A: Its TGI is 31.2 µM.

Q: And the TGI (SK-MEL-5 melanoma)?
A: The TGI was 29.9 µM.

Q: And the TGI (M14 melanoma)?
A: The TGI was 78.5 µM.

Q: For `O=C(CNc1cccc([N+](=O)[O-])c1)Nn1c(-c2ccccc2)nc2ccccc2c1=O`, which TGI (KM12 colon) is on record?
A: The TGI was 4.42 µM.

Q: And the TGI (HL-60(TB) leukemia)?
A: Its TGI is 1.81 µM.

Q: What about the TGI (SW-620 colon) of the same compound?
A: The TGI was 2.05 µM.

Q: What about the TGI (A549 NSCLC) of the same compound?
A: Its TGI is 4.9 µM.

Q: And the TGI (SF-268 CNS)?
A: Its TGI is 4.22 µM.

Q: And the TGI (LOX IMVI melanoma)?
A: Its TGI is 0.663 µM.

Q: What about the TGI (OVCAR-3 ovarian) of the same compound?
A: Its TGI is 5.15 µM.

Q: And the TGI (SK-MEL-5 melanoma)?
A: Its TGI is 2.31 µM.

Q: What does the source list for `NC(=O)C(N)=O`?
A: TGI (KM12 colon): > 100 µM; TGI (HL-60(TB) leukemia): > 100 µM; TGI (SW-620 colon): > 100 µM; TGI (A549 NSCLC): > 100 µM; TGI (SF-268 CNS): > 100 µM; TGI (SK-MEL-2 melanoma): > 100 µM; TGI (LOX IMVI melanoma): > 100 µM; TGI (OVCAR-3 ovarian): > 100 µM; TGI (SK-MEL-5 melanoma): > 100 µM; TGI (M14 melanoma): > 100 µM

Q: Which TGI (HL-60(TB) leukemia) does the source give for `Nc1nc(N)c2c(n1)NC(=O)c1c(c3ccccc3n1Cc1ccc(Cl)cc1)C2` here?
A: Its TGI is 39.4 µM.

Q: And the TGI (SW-620 colon)?
A: Its TGI is over 100 µM.

Q: What about the TGI (A549 NSCLC) of the same compound?
A: Its TGI is 62.6 µM.

Q: And the TGI (SF-268 CNS)?
A: The TGI was over 100 µM.

Q: What about the TGI (SK-MEL-2 melanoma) of the same compound?
A: The TGI was over 100 µM.

Q: And the TGI (LOX IMVI melanoma)?
A: The TGI was 56.4 µM.

Q: And the TGI (OVCAR-3 ovarian)?
A: Its TGI is 56.5 µM.

Q: And the TGI (SK-MEL-5 melanoma)?
A: Its TGI is 28.6 µM.

Q: And the TGI (M14 melanoma)?
A: Its TGI is over 100 µM.

Q: Which results are given for `N#CN=C(N)NC(=O)/C=C/C=C/c1ccc(Cl)cc1`?
A: TGI (KM12 colon): > 100 µM; TGI (HL-60(TB) leukemia): > 100 µM; TGI (SW-620 colon): > 100 µM; TGI (A549 NSCLC): > 100 µM; TGI (SF-268 CNS): > 100 µM; TGI (SK-MEL-2 melanoma): > 100 µM; TGI (LOX IMVI melanoma): > 100 µM; TGI (OVCAR-3 ovarian): > 100 µM; TGI (SK-MEL-5 melanoma): > 100 µM; TGI (M14 melanoma): > 100 µM

Q: With `C#CCOc1c(C(=O)OCC)c(=O)n(C)c2ccccc12` as the compound, how does the TGI (HL-60(TB) leukemia) read?
A: The TGI was over 100 µM.

Q: And the TGI (SW-620 colon)?
A: The TGI was over 100 µM.

Q: What about the TGI (SF-268 CNS) of the same compound?
A: The TGI was over 100 µM.

Q: And the TGI (SK-MEL-2 melanoma)?
A: Its TGI is over 100 µM.

Q: What about the TGI (LOX IMVI melanoma) of the same compound?
A: The TGI was over 100 µM.

Q: What about the TGI (OVCAR-3 ovarian) of the same compound?
A: The TGI was over 100 µM.

Q: And the TGI (SK-MEL-5 melanoma)?
A: The TGI was over 100 µM.

Q: What about the TGI (M14 melanoma) of the same compound?
A: The TGI was over 100 µM.

Q: For `CC(C)(C)N1C(C(=O)c2ccccc2)C1c1ccccc1` (stereo unspecified), which TGI (KM12 colon) is on record?
A: Its TGI is over 100 µM.

Q: And the TGI (HL-60(TB) leukemia)?
A: Its TGI is over 100 µM.

Q: And the TGI (SW-620 colon)?
A: Its TGI is over 100 µM.

Q: What about the TGI (A549 NSCLC) of the same compound?
A: Its TGI is over 100 µM.

Q: And the TGI (LOX IMVI melanoma)?
A: The TGI was over 100 µM.

Q: And the TGI (OVCAR-3 ovarian)?
A: Its TGI is over 100 µM.

Q: What about the TGI (SK-MEL-5 melanoma) of the same compound?
A: The TGI was over 100 µM.

Q: And the TGI (M14 melanoma)?
A: Its TGI is over 100 µM.

Q: How did the TGI (KM12 colon) turn out when `CCOC(=O)C12CCC(=O)C=C1[C@@H](C)C(=O)CC2` (stereo partly specified) was run?
A: Its TGI is over 100 µM.

Q: And the TGI (HL-60(TB) leukemia)?
A: Its TGI is over 100 µM.

Q: What about the TGI (SW-620 colon) of the same compound?
A: Its TGI is over 100 µM.

Q: And the TGI (SF-268 CNS)?
A: Its TGI is over 100 µM.

Q: What about the TGI (SK-MEL-2 melanoma) of the same compound?
A: Its TGI is over 100 µM.

Q: And the TGI (LOX IMVI melanoma)?
A: The TGI was over 100 µM.

Q: What about the TGI (OVCAR-3 ovarian) of the same compound?
A: The TGI was over 100 µM.

Q: And the TGI (SK-MEL-5 melanoma)?
A: Its TGI is over 100 µM.

Q: And the TGI (M14 melanoma)?
A: Its TGI is over 100 µM.

Q: For `COc1ccc(C[C@H](N)C(=O)NC2C(CO)OC(n3cnc4c(N(C)C)ncnc43)C2O)cc1` (stereo partly specified), which TGI (KM12 colon) is on record?
A: Its TGI is 1.32 µM.

Q: What about the TGI (HL-60(TB) leukemia) of the same compound?
A: Its TGI is 0.442 µM.

Q: What about the TGI (A549 NSCLC) of the same compound?
A: The TGI was 2.55 µM.

Q: What about the TGI (SF-268 CNS) of the same compound?
A: The TGI was 2.61 µM.

Q: What about the TGI (SK-MEL-2 melanoma) of the same compound?
A: Its TGI is 3.26 µM.

Q: What about the TGI (LOX IMVI melanoma) of the same compound?
A: The TGI was 0.288 µM.

Q: What about the TGI (SK-MEL-5 melanoma) of the same compound?
A: The TGI was 0.847 µM.

Q: What about the TGI (M14 melanoma) of the same compound?
A: The TGI was 1.77 µM.

Q: Which results are given for `COC(=O)Nc1nc2cc(OC)c(OC)cc2c(=O)[nH]1`?
A: TGI (KM12 colon): > 100 µM; TGI (HL-60(TB) leukemia): > 100 µM; TGI (SW-620 colon): > 100 µM; TGI (A549 NSCLC): > 100 µM; TGI (SF-268 CNS): > 100 µM; TGI (SK-MEL-2 melanoma): > 100 µM; TGI (OVCAR-3 ovarian): > 100 µM; TGI (SK-MEL-5 melanoma): > 100 µM; TGI (M14 melanoma): > 100 µM
